Organism: Rattus norvegicus
Test: Open TG-GATES - Regimen: Daily Repeat
Format: toxicity, organism-based, Sprague-Dawley
Set-up: regimen Daily Repeat, gender Male, age 6 weeks
Details: in vivo, po, 1000 mg/kg, route gavage, dose level High; for Bas / Eos / Fbg / Hb / Ht / Lym / MCH / MCHC / MCV / Mono / Neu / PT / Plat / RBC / Ret / WBC / APTT: tissue Blood; for KIDNEY_L / KIDNEY_R / KIDNEY_TOTAL: tissue Kidney; for LIVER: tissue Liver; for ALP / ALT / AST / BUN / CRE / Ca / DBIL / GLC / IP / K / LDH / Na / PL / RALB / TBIL / TC / TG / TP / gamma-GTP / Cl: tissue Plasma

CCOc1ccc(NC(C)=O)cc1 [PHENACETIN]
TERMINAL_BW (72 h, time 3 day): 201.2 g | Bas (72 h, time 3 day): 0% | Eos (72 h, time 3 day): 0.8% | Fbg (72 h, time 3 day): 283.2 mg/dL | Hb (72 h, time 3 day): 12.6 g/dL | Ht (72 h, time 3 day): 37.2% | Lym (72 h, time 3 day): 69.4% | MCH (72 h, time 3 day): 19.9 pg | MCHC (72 h, time 3 day): 33.9% | MCV (72 h, time 3 day): 58.8 fL | Mono (72 h, time 3 day): 3.2% | Neu (72 h, time 3 day): 26% | PT (72 h, time 3 day): 13.3 s | Plat (72 h, time 3 day): 131.8 x10_4/uL | RBC (72 h, time 3 day): 633.4 x10_4/ul | Ret (72 h, time 3 day): 1.5% | WBC (72 h, time 3 day): 108.7 x10_2/uL | KIDNEY_L (72 h, time 3 day): 1 g | KIDNEY_R (72 h, time 3 day): 0.9 g | KIDNEY_TOTAL (72 h, time 3 day): 1.9 g | LIVER (72 h, time 3 day): 11 g | ALP (72 h, time 3 day): 1479.6 IU/L | ALT (72 h, time 3 day): 43.2 IU/L | AST (72 h, time 3 day): 73.6 IU/L | BUN (72 h, time 3 day): 17.8 mg/dL | CRE (72 h, time 3 day): 0.2 mg/dL | Ca (72 h, time 3 day): 11 mg/dL | DBIL (72 h, time 3 day): 0.024 mg/dL | GLC (72 h, time 3 day): 154.6 mg/dL | IP (72 h, time 3 day): 6.3 mg/dL | K (72 h, time 3 day): 4.4 meq/L | LDH (72 h, time 3 day): 77.6 IU/L | Na (72 h, time 3 day): 143.8 meq/L | PL (72 h, time 3 day): 202.4 mg/dL | RALB (72 h, time 3 day): 2.7 g/dL | TBIL (72 h, time 3 day): 0.092 mg/dL | TC (72 h, time 3 day): 111.8 mg/dL | TG (72 h, time 3 day): 87.4 mg/dL | TP (72 h, time 3 day): 5.9 g/dL | gamma-GTP (72 h, time 3 day): 1.4 IU/L | TERMINAL_BW ([…], time 7 day): 234.8 g | TERMINAL_BW ([…], time 14 day): 283.3 g | TERMINAL_BW ([…], time 28 day): 363.6 g | APTT ([…], time 7 day): 22.5 s | Bas ([…], time 7 day): 0.4% | Eos ([…], time 7 day): 0.4% | Fbg ([…], time 7 day): 319.6 mg/dL | Ht ([…], time 7 day): 33.4% | Lym ([…], time 7 day): 62.2% | MCH ([…], time 7 day): 22.7 pg | MCHC ([…], time 7 day): 31.2% | MCV ([…], time 7 day): 72.7 fL | Mono ([…], time 7 day): 3% | Neu ([…], time 7 day): 33.4% | PT ([…], time 7 day): 13.6 s | Plat ([…], time 7 day): 156.2 x10_4/uL | RBC ([…], time 7 day): 463.8 x10_4/ul | Ret ([…], time 7 day): 17.7% | WBC ([…], time 7 day): 178.5 x10_2/uL | APTT ([…], time 14 day): 19 s | Bas ([…], time 14 day): 0.2% | Eos ([…], time 14 day): 0.8% | Fbg ([…], time 14 day): 263.6 mg/dL | Ht ([…], time 14 day): 43.1% | Lym ([…], time 14 day): 72% | MCH ([…], time 14 day): 25.1 pg | MCHC ([…], time 14 day): 32% | MCV ([…], time 14 day): 78.4 fL | Mono ([…], time 14 day): 3.2% | Neu ([…], time 14 day): 23.6% | PT ([…], time 14 day): 13.7 s | Plat ([…], time 14 day): 108.2 x10_4/uL | RBC ([…], time 14 day): 550.4 x10_4/ul | WBC ([…], time 14 day): 119.8 x10_2/uL | APTT ([…], time 28 day): 18.1 s | Bas ([…], time 28 day): 0% | Eos ([…], time 28 day): 1% | Fbg ([…], time 28 day): 251.2 mg/dL | Hb ([…], time 28 day): 13.7 g/dL | Lym ([…], time 28 day): 66.8% | MCH ([…], time 28 day): 24.3 pg | MCHC ([…], time 28 day): 33.3% | MCV ([…], time 28 day): 72.8 fL | Mono ([…], time 28 day): 3.2% | Neu ([…], time 28 day): 28.4% | Plat ([…], time 28 day): 106.4 x10_4/uL | RBC ([…], time 28 day): 566.6 x10_4/ul | Ret ([…], time 28 day): 11.5% | WBC ([…], time 28 day): 134.5 x10_2/uL | KIDNEY_L ([…], time 7 day): 1.1 g | KIDNEY_R ([…], time 7 day): 1.1 g | KIDNEY_TOTAL ([…], time 7 day): 2.2 g | KIDNEY_L ([…], time 14 day): 1.3 g | KIDNEY_R ([…], time 14 day): 1.3 g | KIDNEY_TOTAL ([…], time 14 day): 2.5 g | KIDNEY_L ([…], time 28 day): 1.5 g | KIDNEY_R ([…], time 28 day): 1.5 g | KIDNEY_TOTAL ([…], time 28 day): 3 g | LIVER ([…], time 7 day): 11.9 g | LIVER ([…], time 14 day): 13.2 g | ALP ([…], time 7 day): 1794.2 IU/L | ALT ([…], time 7 day): 46.4 IU/L | AST ([…], time 7 day): 73.2 IU/L | BUN ([…], time 7 day): 16 mg/dL | CRE ([…], time 7 day): 0.2 mg/dL | Ca ([…], time 7 day): 11 mg/dL | Cl ([…], time 7 day): 104.8 meq/L | DBIL ([…], time 7 day): 0.04 mg/dL | GLC ([…], time 7 day): 167.4 mg/dL | IP ([…], time 7 day): 5.9 mg/dL | K ([…], time 7 day): 4.5 meq/L | LDH ([…], time 7 day): 81.4 IU/L | Na ([…], time 7 day): 144 meq/L | PL ([…], time 7 day): 172.4 mg/dL | RALB ([…], time 7 day): 2.7 g/dL | TBIL ([…], time 7 day): 0.2 mg/dL | TC ([…], time 7 day): 75.6 mg/dL | TG ([…], time 7 day): 160 mg/dL | TP ([…], time 7 day): 6 g/dL | gamma-GTP ([…], time 7 day): 1.2 IU/L | ALP ([…], time 14 day): 1457 IU/L | ALT ([…], time 14 day): 43.2 IU/L | AST ([…], time 14 day): 68 IU/L | CRE ([…], time 14 day): 0.2 mg/dL | Ca ([…], time 14 day): 10.8 mg/dL | Cl ([…], time 14 day): 103.8 meq/L | DBIL ([…], time 14 day): 0.036 mg/dL | GLC ([…], time 14 day): 168.8 mg/dL | IP ([…], time 14 day): 6.2 mg/dL | K ([…], time 14 day): 4.5 meq/L | LDH ([…], time 14 day): 154 IU/L | Na ([…], time 14 day): 143.2 meq/L | PL ([…], time 14 day): 176.6 mg/dL | RALB ([…], time 14 day): 2.7 g/dL | TBIL ([…], time 14 day): 0.1 mg/dL | TC ([…], time 14 day): 81.6 mg/dL | TG ([…], time 14 day): 171.4 mg/dL | TP ([…], time 14 day): 5.9 g/dL | gamma-GTP ([…], time 14 day): 1.4 IU/L | ALP ([…], time 28 day): 1375.4 IU/L | ALT ([…], time 28 day): 51.4 IU/L | AST ([…], time 28 day): 72.2 IU/L | BUN ([…], time 28 day): 21.4 mg/dL | CRE ([…], time 28 day): 0.3 mg/dL | Ca ([…], time 28 day): 10.8 mg/dL | Cl ([…], time 28 day): 102.8 meq/L | DBIL ([…], time 28 day): 0.038 mg/dL | GLC ([…], time 28 day): 157 mg/dL | IP ([…], time 28 day): 6.6 mg/dL | K ([…], time 28 day): 4.4 meq/L | LDH ([…], time 28 day): 70.8 IU/L | Na ([…], time 28 day): 145.2 meq/L | PL ([…], time 28 day): 171 mg/dL | RALB ([…], time 28 day): 2.8 g/dL | TBIL ([…], time 28 day): 0.1 mg/dL | TC ([…], time 28 day): 81.2 mg/dL | TG ([…], time 28 day): 125.6 mg/dL | TP ([…], time 28 day): 6.3 g/dL | gamma-GTP ([…], time 28 day): 1.2 IU/L
